In PubChem BioAssay (NCI):
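Protocol summary: plate cells (96-well), add compound at 5 concentrations, incubate 48 h, interpolate endpoints linearly. At the GI50, growth is halved. TGI marks complete inhibition of growth.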

Key:
Test in all cases: NCI tumour cell line growth inhibition, 48 h
LOX IMVI melanoma = test system: LOX IMVI melanoma
NCI-H23 lung = test system: NCI-H23 lung
MDA-MB-231 breast = test system: MDA-MB-231 breast
786-0 renal = test system: 786-0 renal
IGROV1 ovarian = test system: IGROV1 ovarian
OVCAR-8 ovarian = test system: OVCAR-8 ovarian
PC-3 prostate = test system: PC-3 prostate
SF-295 CNS = test system: SF-295 CNS
NCI-H522 lung = test system: NCI-H522 lung
SNB-75 CNS = test system: SNB-75 CNS
UACC-62 melanoma = test system: UACC-62 melanoma
UACC-257 melanoma = test system: UACC-257 melanoma
A498 renal = test system: A498 renal
CAKI-1 renal = test system: CAKI-1 renal
A549 NSCLC = test system: A549 NSCLC
MALME-3M melanoma = test system: MALME-3M melanoma
SR leukemia = test system: SR leukemia
NCI-H460 lung = test system: NCI-H460 lung
RPMI-8226 leukemia = test system: RPMI-8226 leukemia
HT29 colon = test system: HT29 colon
OVCAR-4 ovarian = test system: OVCAR-4 ovarian
UO-31 renal = test system: UO-31 renal
HCC-2998 colon = test system: HCC-2998 colon
SN12C renal = test system: SN12C renal
SK-MEL-2 melanoma = test system: SK-MEL-2 melanoma
KM12 colon = test system: KM12 colon
M14 melanoma = test system: M14 melanoma
COLO 205 colon = test system: COLO 205 colon
U251 CNS = test system: U251 CNS
CCRF-CEM leukemia = test system: CCRF-CEM leukemia
HCT-15 colon = test system: HCT-15 colon
EKVX NSCLC = test system: EKVX NSCLC
MDA-MB-468 breast = test system: MDA-MB-468 breast
HS 578T breast = test system: HS 578T breast
ACHN renal = test system: ACHN renal
SK-OV-3 ovarian = test system: SK-OV-3 ovarian
HOP-92 NSCLC = test system: HOP-92 NSCLC
SNB-19 CNS = test system: SNB-19 CNS
NCI-H226 lung = test system: NCI-H226 lung
MDA-MB-435 = test system: MDA-MB-435
OVCAR-5 ovarian = test system: OVCAR-5 ovarian
MOLT-4 leukemia = test system: MOLT-4 leukemia
SK-MEL-28 melanoma = test system: SK-MEL-28 melanoma
HCT-116 colon = test system: HCT-116 colon
K-562 leukemia = test system: K-562 leukemia
SK-MEL-5 melanoma = test system: SK-MEL-5 melanoma
SW-620 colon = test system: SW-620 colon
HOP-62 NSCLC = test system: HOP-62 NSCLC
SF-539 CNS = test system: SF-539 CNS
T-47D breast = test system: T-47D breast
HL-60(TB) leukemia = test system: HL-60(TB) leukemia
OVCAR-3 ovarian = test system: OVCAR-3 ovarian
DU-145 prostate = test system: DU-145 prostate
MCF7 breast = test system: MCF7 breast
RXF 393 renal = test system: RXF 393 renal
TK-10 renal = test system: TK-10 renal
SF-268 CNS = test system: SF-268 CNS
NCI/ADR-RES ovarian = test system: NCI/ADR-RES ovarian

## COc1ccc2[nH]cc(-c3cc(N)n4nc(-c5cn(C)c6ccccc56)cc4n3)c2c1
LOX IMVI melanoma
  GI50: 1.76 µM
  TGI: 3.28 µM
NCI-H23 lung
  GI50: 1.97 µM
  TGI: 3.95 µM
MDA-MB-231 breast
  GI50: 1.51 µM
  TGI: 2.84 µM
786-0 renal
  GI50: 1.59 µM
  TGI: 3.12 µM
IGROV1 ovarian
  GI50: 1.62 µM
  TGI: 3.05 µM
OVCAR-8 ovarian
  GI50: 1.75 µM
  TGI: 3.27 µM
PC-3 prostate
  GI50: 1.67 µM
  TGI: 3.52 µM
SF-295 CNS
  GI50: 1.78 µM
  TGI: 3.34 µM
NCI-H522 lung
  GI50: 1.52 µM
  TGI: 2.99 µM
SNB-75 CNS
  GI50: 1.4 µM
  TGI: 2.81 µM
UACC-62 melanoma
  GI50: 1.62 µM
  TGI: 2.99 µM
UACC-257 melanoma
  GI50: 1.68 µM
  TGI: 3.1 µM
A498 renal
  GI50: 1.73 µM
  TGI: 3.23 µM
CAKI-1 renal
  GI50: 1.73 µM
  TGI: 3.12 µM
A549 NSCLC
  GI50: 1.54 µM
  TGI: 2.9 µM
MALME-3M melanoma
  GI50: 1.74 µM
  TGI: 3.14 µM
SR leukemia
  GI50: 0.343 µM
  TGI: 1.73 µM
NCI-H460 lung
  GI50: 1.9 µM
  TGI: 3.62 µM
RPMI-8226 leukemia
  GI50: 1.94 µM
  TGI: 5 µM
HT29 colon
  GI50: 1.8 µM
  TGI: 3.22 µM
OVCAR-4 ovarian
  GI50: 1.7 µM
  TGI: 3.19 µM
UO-31 renal
  GI50: 1.46 µM
  TGI: 2.78 µM
HCC-2998 colon
  GI50: 1.94 µM
  TGI: 3.38 µM
SN12C renal
  GI50: 1.53 µM
  TGI: 2.86 µM
SK-MEL-2 melanoma
  GI50: 1.67 µM
  TGI: 3.13 µM
KM12 colon
  GI50: 2.03 µM
  TGI: 4.22 µM
M14 melanoma
  GI50: 1.79 µM
  TGI: 3.93 µM
COLO 205 colon
  GI50: 1.79 µM
  TGI: 3.41 µM
U251 CNS
  GI50: 1.69 µM
  TGI: 3.15 µM
CCRF-CEM leukemia
  GI50: 1.86 µM
  TGI: 6.44 µM
HCT-15 colon
  GI50: 1.23 µM
  TGI: 2.52 µM
EKVX NSCLC
  GI50: 1.8 µM
  TGI: 3.89 µM
MDA-MB-468 breast
  GI50: 1.57 µM
  TGI: 3.06 µM
HS 578T breast
  GI50: 2.05 µM
  TGI: 4.83 µM
ACHN renal
  GI50: 1.87 µM
  TGI: 3.43 µM
SK-OV-3 ovarian
  GI50: 1.81 µM
  TGI: 3.36 µM
HOP-92 NSCLC
  GI50: 1.68 µM
  TGI: 3.24 µM
SNB-19 CNS
  GI50: 1.66 µM
  TGI: 3.11 µM
NCI-H226 lung
  GI50: 1.87 µM
  TGI: 4.74 µM
MDA-MB-435
  GI50: 1.77 µM
  TGI: 3.23 µM
OVCAR-5 ovarian
  GI50: 1.73 µM
  TGI: 3.27 µM
MOLT-4 leukemia
  GI50: 1.59 µM
  TGI: 4.38 µM
SK-MEL-28 melanoma
  GI50: 1.78 µM
  TGI: 3.23 µM
HCT-116 colon
  GI50: 1.54 µM
  TGI: 3.69 µM
K-562 leukemia
  GI50: 0.614 µM
  TGI: 6.66 µM
SK-MEL-5 melanoma
  GI50: 1.76 µM
  TGI: 3.14 µM
SW-620 colon
  GI50: 1.81 µM
  TGI: 3.47 µM
HOP-62 NSCLC
  GI50: 1.89 µM
  TGI: 3.76 µM
SF-539 CNS
  GI50: 1.61 µM
  TGI: 3.01 µM
T-47D breast
  GI50: 2.01 µM
  TGI: 4.43 µM
HL-60(TB) leukemia
  GI50: 1.39 µM
  TGI: 3.58 µM
OVCAR-3 ovarian
  GI50: 1.8 µM
  TGI: 3.34 µM
DU-145 prostate
  GI50: 1.82 µM
  TGI: 3.52 µM
MCF7 breast
  GI50: 1.46 µM
  TGI: 3.25 µM
RXF 393 renal
  GI50: 1.74 µM
  TGI: 3.39 µM
TK-10 renal
  GI50: 1.89 µM
  TGI: 3.37 µM
SF-268 CNS
  GI50: 1.94 µM
  TGI: 4.05 µM
NCI/ADR-RES ovarian
  GI50: 1.89 µM
  TGI: 3.82 µM
